Source: ChEMBL document CHEMBL1131307, “Novel nonnucleoside inhibitors of HIV-1 reverse transcriptase. 8. 8-Aryloxymethyl- and 8-arylthiomethyldipyridodiazepinones” (J Med Chem, 1998)

Key:
[1] = molecular target: Human immunodeficiency virus type 1 reverse transcriptase (Human immunodeficiency virus 1, UniProt Q72547); test: Inhibitory activity against HIV-1 wild-type reverse transcriptase.
[2] = Compound was tested for its toxicity by using MTT toxicity assay.
[3] = molecular target: Human immunodeficiency virus type 1 reverse transcriptase (Human immunodeficiency virus 1, UniProt Q72547, Y188L); test: Inhibitory activity against HIV-1 Y188L reverse transcriptase.
[4] = molecular target: Human immunodeficiency virus type 1 reverse transcriptase (Human immunodeficiency virus 1, UniProt Q72547, Y181C); test: Inhibitory activity against HIV-1 Y181C reverse transcriptase.
C8166 [5] = test: (§1) Inhibitory activity against HIV-1 IIIB replication in C8166 cells.; assay type: functional; conditions: Homo sapiens
Homo sapiens [6] = species: Homo sapiens; test: (§2) In vitro metabolism in human liver microsomes
[7] = molecular target: Human immunodeficiency virus type 1 reverse transcriptase (Human immunodeficiency virus 1, UniProt Q72547, K103N); test: Inhibitory activity against HIV-1 Mutant Reverse transcriptase K103N
C8166 [8] = test: as §1; assay type: functional, cell-based; conditions: Homo sapiens
[9] = system: Human immunodeficiency virus type 1 reverse transcriptase (Human immunodeficiency virus 1), Q72547 [R221A]; test: Inhibitory activity against HIV-1 Y188L reverse transcriptase at 1 uM concentration
[10] = system: Human immunodeficiency virus type 1 reverse transcriptase (Human immunodeficiency virus 1), Q72547 [Y181C]; test: Inhibitory activity against HIV-1 Y181C reverse transcriptase at 1 uM concentration
[11] = molecular target: Human immunodeficiency virus type 1 reverse transcriptase (Human immunodeficiency virus 1) (UniProt Q72547); test: Inhibitory activity against HIV-1 wild-type reverse transcriptase at 1 uM concentration
Homo sapiens [12] = species: Homo sapiens; test: as §2; assay type: ADME
[13] = system: Human immunodeficiency virus type 1 reverse transcriptase (Human immunodeficiency virus 1), Q72547 [R221A]; test: Inhibitory activity against HIV-1 Y188L reverse transcriptase t 1 uM concentration

SMILES: CCN1c2ncc(C[S+]([O-])c3ccccc3)cc2C(=O)N(C)c2ccc(Cl)nc21 (configuration not stated)
- IC50 [1]: 70 nM
- CC30 [2]: 45 µM
- IC50 [3]: 2420 nM
- IC50 [4]: 140 nM

SMILES: CCN1c2ncc(COc3cccc([N+](=O)[O-])c3)cc2C(=O)N(C)c2ccc(Cl)nc21
- IC50 [1]: 170 nM
- IC50 [4]: 350 nM

SMILES: CCN1c2ncc(CSc3ccccc3)cc2C(=O)N(C)c2ccc(Cl)nc21
- IC90 (C8166 [5]): 13 nM
- IC50 [1]: 20 nM
- Metabolism (Homo sapiens [6]): 554 pmol/min/mg
- CC30 [2]: > 60 µM
- IC50 [7]: 30 nM
- IC50 [3]: 30 nM
- IC50 [4]: 10 nM
- IC50 (C8166 [8]): 5 nM

SMILES: CCN1c2ncc(COc3cccc4[nH]ccc34)cc2C(=O)N(C)c2ccc(Cl)nc21
- IC50 [1]: 330 nM
- Metabolism (Homo sapiens [6]): 208 pmol/min/mg
- CC30 [2]: > 30 µM
- IC50 [3]: 1360 nM
- IC50 [4]: 200 nM

SMILES: CCN1c2ncc(CNc3ccccc3)cc2C(=O)N(C)c2ccc(Cl)nc21
- IC50 [1]: 80 nM
- CC30 [2]: > 60 µM
- IC50 [7]: 50 nM
- IC50 [4]: 370 nM

SMILES: CCN1c2ncc(COc3ccnc(C(F)(F)F)c3)cc2C(=O)N(C)c2ccc(Cl)nc21
- IC50 [1]: 40 nM
- Metabolism (Homo sapiens [6]): 206 pmol/min/mg
- IC50 [4]: 70 nM

SMILES: CCN1c2ncc(CSc3[nH]cnc4nncc3-4)cc2C(=O)N(C)c2ccc(Cl)nc21
- IC50 [1]: 50 nM
- Metabolism (Homo sapiens [6]): 336 pmol/min/mg
- CC30 [2]: 40 µM
- IC50 [3]: 120 nM
- IC50 [4]: 70 nM

SMILES: CCN1c2ncc(COc3cccc(C(=O)OC)c3)cc2C(=O)N(C)c2ccc(Cl)nc21
- inhibition [9]: 11%
- IC50 [1]: 700 nM
- inhibition [10]: 23%

SMILES: CCN1c2ncc(COc3cc[n+]([O-])cc3)cc2C(=O)N(C)c2ccc(F)nc21
- inhibition [9]: 31%

SMILES: CCN1c2ncc(OCc3ccccc3)cc2C(=O)N(C)c2ccc(Cl)nc21
- inhibition [9]: 0%
- inhibition [11]: 20%
- inhibition [10]: 0%

SMILES: CCN1c2ncc(COc3ccnc(C)c3)cc2C(=O)N(C)c2ccc(Cl)nc21
- IC50 [1]: 30 nM
- IC50 [3]: 230 nM
- IC50 [4]: 30 nM

SMILES: CCN1c2ncc(CCc3ccncc3)cc2C(=O)N(C)c2ccc(Cl)nc21
- IC50 [1]: 80 nM
- Metabolism (Homo sapiens [6]): 145 pmol/min/mg
- IC50 [7]: 120 nM
- IC50 [3]: 1850 nM
- IC50 [4]: 120 nM

SMILES: CCN1c2ncc(COc3cc[n+]([O-])cc3)cc2C(=O)N(C)c2ccc(Cl)nc21
- inhibition [9]: 0%
- IC50 [1]: 230 nM
- inhibition [10]: 39%

SMILES: CCN1c2ncc(COc3ccccc3O)cc2C(=O)N(C)c2ccc(Cl)nc21
- IC50 [1]: 100 nM
- IC50 [4]: 350 nM

SMILES: CCN1c2ncc(COc3ccc(O)cc3)cc2C(=O)N(C)c2ccc(Cl)nc21
- inhibition [9]: 21%
- IC50 [1]: 210 nM
- inhibition [10]: 27%

SMILES: CCN1c2ncc(COc3ccc(C(=O)OC)cc3)cc2C(=O)N(C)c2ccc(Cl)nc21
- inhibition [9]: 0%
- IC50 [1]: 800 nM
- inhibition [10]: 33%

SMILES: CCN1c2ncc(COc3cccc(C(=O)O)c3)cc2C(=O)N(C)c2ccc(Cl)nc21
- IC50 [1]: 90 nM
- CC30 [2]: 250 µM
- IC50 [7]: 190 nM
- IC50 [4]: 550 nM

SMILES: CCN1c2ncc(COc3cc[n+]([O-])c(C(F)(F)F)c3)cc2C(=O)N(C)c2ccc(Cl)nc21
- IC50 [1]: 120 nM
- IC50 [4]: 270 nM

SMILES: CCN1c2ncc(COc3ccc(F)cc3)cc2C(=O)N(C)c2ccc(Cl)nc21
- IC50 [1]: 280 nM
- IC50 [4]: 1660 nM

SMILES: CCN1c2ncc(COc3ccncc3)cc2C(=O)N(C)c2ccc(Cl)nc21
- IC90 (C8166 [5]): 24 nM
- IC50 [1]: 70 nM
- Metabolism (Homo sapiens [6]): 53 pmol/min/mg
- CC30 [2]: > 120 µM
- IC50 [7]: 70 nM
- IC50 [4]: 260 nM
- IC50 (C8166 [8]): 6 nM

SMILES: CCN1c2ncc(COc3cc[n+]([O-])cc3)cc2C(=O)N(C)c2cccnc21
- IC50 [1]: 210 nM
- IC50 [4]: 1340 nM

SMILES: CCN1c2ncc(COc3cccnc3)cc2C(=O)N(C)c2ccc(Cl)nc21
- IC50 [1]: 190 nM
- IC50 [4]: 260 nM

SMILES: CCN1c2ncc(COc3ccccc3C(=O)OC)cc2C(=O)N(C)c2ccc(Cl)nc21
- inhibition [9]: 2%
- inhibition [11]: 25%
- inhibition [10]: 2%

SMILES: CCN1c2ncc(CN(C)c3ccccc3)cc2C(=O)N(C)c2ccc(Cl)nc21
- inhibition [9]: 17%
- IC50 [1]: 590 nM
- inhibition [10]: 18%

SMILES: CCN1c2ncc(COc3ccncc3)cc2C(=O)N(C)c2cccnc21
- IC50 [1]: 20 nM
- CC30 [2]: > 256 µM
- IC50 [7]: 50 nM
- IC50 [3]: 5520 nM
- IC50 [4]: 140 nM

SMILES: CCN1c2ncc(NCc3ccccc3)cc2C(=O)N(C)c2ccc(Cl)nc21
- inhibition [9]: 0%
- IC50 [1]: 260 nM
- IC50 [4]: 390 nM

SMILES: CC(C)Nc1cccnc1N1CCN(C(=O)c2cc3cc(NS(C)(=O)=O)ccc3[nH]2)CC1 [DELAVIRDINE]
- Metabolism (Homo sapiens [6]): 144 pmol/min/mg

SMILES: CCN1c2ncc(N(C)C(=O)c3ccccc3)cc2C(=O)N(C)c2ccc(Cl)nc21
- inhibition [9]: 13%
- IC50 [1]: 210 nM
- inhibition [10]: 22%

SMILES: CCN1c2ncc(CCc3ccccc3)cc2C(=O)N(C)c2ccc(Cl)nc21
- IC50 [1]: 50 nM
- Metabolism (Homo sapiens [6]): 288 pmol/min/mg
- IC50 [7]: 50 nM
- IC50 [3]: 960 nM
- IC50 [4]: 150 nM

SMILES: Cc1ccnc2c1NC(=O)c1cccnc1N2C1CC1 [NEVIRAPINE]
- Metabolism (Homo sapiens [12]): 2 pmol/min/mg

SMILES: CCN1c2ncc(C(=O)N(C)c3ccccc3)cc2C(=O)N(C)c2ccc(Cl)nc21
- inhibition [11]: 15%
- inhibition [13]: 46%
- inhibition [10]: 20%

SMILES: CCN1c2ncc(COc3ccc4[nH]ccc4c3)cc2C(=O)N(C)c2ccc(Cl)nc21
- IC50 [1]: 310 nM
- IC50 [4]: 90 nM

SMILES: CCN1c2ncc(CSc3ccncc3)cc2C(=O)N(C)c2ccc(Cl)nc21
- IC50 [1]: 20 nM
- Metabolism (Homo sapiens [6]): 372 pmol/min/mg
- IC50 [4]: 50 nM

SMILES: CCN1c2ncc(CSc3ncccn3)cc2C(=O)N(C)c2ccc(Cl)nc21
- IC50 [1]: 30 nM
- IC50 [4]: 60 nM

SMILES: CCN1c2ncc(COc3cc[n+]([O-])c(C)c3)cc2C(=O)N(C)c2ccc(Cl)nc21
- IC50 [1]: 100 nM
- IC50 [3]: 4310 nM
- IC50 [4]: 210 nM

SMILES: CCN1c2ncc(CS(=O)(=O)c3ccccc3)cc2C(=O)N(C)c2ccc(Cl)nc21
- IC50 [1]: 100 nM
- Metabolism (Homo sapiens [6]): 322 pmol/min/mg
- IC50 [3]: 11000 nM
- IC50 [4]: 60 nM

SMILES: CCN1c2ncc(COc3cccc(N)c3)cc2C(=O)N(C)c2ccc(Cl)nc21
- IC90 (C8166 [5]): 36 nM
- IC50 [1]: 50 nM
- IC50 [3]: 370 nM
- IC50 [4]: 100 nM
- IC50 (C8166 [8]): 19 nM

SMILES: CCN1c2ncc(CNc3cccc(N)c3)cc2C(=O)N(C)c2ccc(Cl)nc21
- IC50 [1]: 60 nM
- CC30 [2]: 60 µM
- IC50 [4]: 100 nM

SMILES: CCN1c2ncc(COc3ccccc3)cc2C(=O)N(C)c2ccc(Cl)nc21
- IC90 (C8166 [5]): 113 nM
- IC50 [1]: 110 nM
- Metabolism (Homo sapiens [6]): 171 pmol/min/mg
- CC30 [2]: > 60 µM
- IC50 [7]: 20 nM
- IC50 [3]: 640 nM
- IC50 [4]: 60 nM
- IC50 (C8166 [8]): 50 nM

SMILES: CCN1c2ncc(COc3ccncc3)cc2C(=O)N(C)c2ccc(F)nc21
- IC50 [1]: 50 nM
- Metabolism (Homo sapiens [6]): 41 pmol/min/mg
- CC30 [2]: 160 µM
- IC50 [7]: 40 nM
- IC50 [4]: 190 nM

SMILES: CCN1c2ncc(COc3cccc(C(N)=O)c3)cc2C(=O)N(C)c2ccc(Cl)nc21
- IC50 [1]: 30 nM
- Metabolism (Homo sapiens [6]): 292 pmol/min/mg
- CC30 [2]: 130 µM
- IC50 [3]: 340 nM
- IC50 [4]: 280 nM

SMILES: CCN1c2ncc(COc3cccc(N(C)C)c3)cc2C(=O)N(C)c2ccc(Cl)nc21
- inhibition [9]: 7%
- inhibition [11]: 0%
- inhibition [10]: 0%

SMILES: CCN1c2ncc(COc3cccc(F)c3)cc2C(=O)N(C)c2ccc(Cl)nc21
- inhibition [9]: 16%
- inhibition [11]: 24%
- inhibition [10]: 11%

SMILES: CCN1c2ncc(COc3cccc(OC)c3)cc2C(=O)N(C)c2ccc(Cl)nc21
- IC50 [1]: 100 nM
- IC50 [7]: 130 nM
- IC50 [4]: 280 nM
